Reference: article PMC4669722, “Antitumour potential of BPT: a dual inhibitor of cdk4 and tubulin polymerization” (Cell Death & Disease, 2015)
“Also recorded” adds a separate entry of the source.

Tests used:
[1] = system: BNL CL2 (mouse embryonic normal hepatic cells); experiment: Flow cytometric cell cycle analysis, BNL CL2; type: cell-based; conditions: BNL CL2, 48 h, IC50 and IC70 concentrations
Description: (§1) The untreated (control) and treated (with test compounds) cells were harvested by trypsinization, washed once with PBS and then fixed in 70% chilled (−20 °C) ethanol for minimum 1 h. After the fixation step, cells were centrifuged for 5 min at 3000 × g at room temperature, and the pellet was suspended in PBS containing 50 μg/ml propidium iodide (Sigma-Aldrich, Dorset, UK; cat. no. P-4170) and 0.5 mg/ml DNase-free ribonuclease (Sigma-Aldrich; cat. no. R-5503). The cells were stained for 1 h in the dark at 4 °C. Cell cycle analysis was performed on the Beckman Coulter (Epics Altra) fluorescence-activated cell sorter (Beckman Coulter UK Ltd, Buckinghamshire, UK). To gate all the events that represent single cells, and not cell doublets or cell clumps, the following analyses were performed on the samples. Cytograms of propidium iodide fluorescence peak signal versus integrated fluorescence or the linear signal were plotted. All data points on the straight line were isolated in a single gate and the gated data was further used for plotting a histogram that represents a complete cell cycle. The total number of events was not allowed to exceed 200 events per s. Data acquisition was stopped after a minimum of 10 000 events had been collected.

NCI-H460 tumours = experiment: NCI-H460 xenograft efficacy in SCID mice; type: in vivo; conditions: 100 mpk intraperitoneal, 9 days
Description: A group of 65 SCID (SCID strain-CBySmn.CB17-Prkdc^scid/J; The Jackson Laboratory; Stock no. 001803) female mice weighing 15–24 g and 6–8 weeks old were used. Human non-small-cell lung carcinoma, NCI-H460 (ATCC; cat. no. HTB-177) cells grown in RPMI-1640 medium supplemented with 10% FBS (Sigma-Aldrich). The cultured cells were injected subcutaneously into the dorsal side of SCID mice at a tune of 5.3 × 10^6 cells in 0.2 ml of suspension. When the tumour growth reached about 4–6 mm in diameter (about 6 days), the animals were randomly divided into eight groups, each containing 6 or 7 mice. The treatments were continued for 9 consecutive days intraperitoneally. Flavopiridol (2.5 mpk) was used as a positive control in this study. Tumour size was recorded at 2–5 day intervals. Tumour weight (mg) was estimated according to the formula for a prolate ellipsoid: (length (mm) × width (mm)^2) × 0.5) assuming specific gravity to be one and π to be 3. Tumour growth in compound treated animals is calculated as T/C (treated/control) × 100% and growth inhibition percent (% GI) was (100−% T/C).[48], [49], [50]

PDGFR = experiment: Kinase profiling (Millipore), PDGFR; type: biochemical
Description: (§2) The in vitro kinase assays for testing against Cdk4-cyclin D1, Cdk2-cyclin A, Cdk1-cyclin B1 and Cdk9-cyclin T1 were performed in-house. The methodology and results have been reported previously.[20], [30], [31], [32], [45] The kinase profiling for 58 representative kinases was carrried out commercially at Millipore Bioscience Division, Livingston, UK.

Calu-1 cells = experiment: Cell cycle analysis, Calu-1; type: cell-based, human; conditions: p53-null, non-functional mitotic-spindle checkpoint
Description: as §1
Fig. S4. Cell cycle analysis of calu-1 cells upon BPT treatment. […]

pBluescript plasmid DNA = experiment: EtBr displacement assay; type: binding; conditions: 1.3 μM EtBr, pH 7.4
Description: The assays were performed in a 96-well plate with clear bottom (Costar, Washington, DC, USA). The assay involved the addition of 10 μl of 10 × concentrated stock solution of compounds (dissolved in DMSO and further diluted in EtBr displacement assay buffer) to 90 μl of reaction mixture containing 6 μg of purified pBlueScript DNA and 1.3 μM EtBr in EtBr displacement assay buffer with final pH 7.4. Equivalent amounts of DMSO were added to the vehicle controls. In addition to control samples (DNA+EtBr), test samples (DNA+EtBr+test compounds), blank 1 (EtBr only), blank 2 (DNA only), wells containing DNA and compound were also prepared to test any change in the background fluorescence readings. The reduction in relative fluorescence counts was monitored ([…]) and recorded after 1 min equilibration time. Fascaplysin and actinomycin D, which are known to intercalate d-s DNA, were used as standard compounds in assay. The mean control and test readings were corrected by subtracting blank readings. The percentage fluorescence in the test samples in reaction with control samples was calculated by using following formula: […]

MEK1 = MEK1 (Homo sapiens, UniProt Q02750); experiment: Kinase profiling (Millipore), MEK1; type: biochemical
MEK1, sequence (Q02750 whole entry): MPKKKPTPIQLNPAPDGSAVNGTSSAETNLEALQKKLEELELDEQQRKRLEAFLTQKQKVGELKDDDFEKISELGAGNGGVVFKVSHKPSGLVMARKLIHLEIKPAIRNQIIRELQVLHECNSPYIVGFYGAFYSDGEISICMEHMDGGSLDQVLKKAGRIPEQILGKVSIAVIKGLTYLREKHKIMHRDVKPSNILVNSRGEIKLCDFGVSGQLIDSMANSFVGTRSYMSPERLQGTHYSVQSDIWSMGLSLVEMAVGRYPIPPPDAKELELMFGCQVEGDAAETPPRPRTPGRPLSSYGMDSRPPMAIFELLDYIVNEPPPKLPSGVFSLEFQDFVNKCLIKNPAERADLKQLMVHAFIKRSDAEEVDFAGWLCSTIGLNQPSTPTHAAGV
Description: as §2

[2] = Pharmacokinetics in BALB/c mice; type: in vivo
Description: Oral and intravenous pharmacokinetic studies of BPT were carried out in BALB/c male mice of age 4–6 weeks, by administering BPT orally and intravenous formulation at dose of 10 mg/kg for oral and 1 mg/kg for intravenous. Plasma samples were collected at appropriate time points between the range 0 and 24 h, and analysed by LC-MS-MS. Mean plasma concentration calculated and data were further analysed to determine PK parameters such as t1/2, Cmax, ACU, Vd and CL, using WinNonlin 5.3 software package (Pharsight Company, Princeton, NJ, USA).

NCI-H358 cells = experiment: Flow cytometric cell cycle analysis, synchronized NCI-H358; type: cell-based, human; conditions: NCI-H358 after nocodazole block, released in presence of BPT, within 12 h
Description: as §1

[3] = system: panel of 58 representative kinases; experiment: Kinase profiling, panel of 58 representative kinases; type: biochemical; conditions: at 10 μM
Description: as §2

Cdk5-p35 = Cdk5-p35 (Homo sapiens, UniProt Q00535); experiment: Kinase profiling (Millipore), Cdk5-p35; type: biochemical
Cdk5-p35, sequence (Q00535 whole entry): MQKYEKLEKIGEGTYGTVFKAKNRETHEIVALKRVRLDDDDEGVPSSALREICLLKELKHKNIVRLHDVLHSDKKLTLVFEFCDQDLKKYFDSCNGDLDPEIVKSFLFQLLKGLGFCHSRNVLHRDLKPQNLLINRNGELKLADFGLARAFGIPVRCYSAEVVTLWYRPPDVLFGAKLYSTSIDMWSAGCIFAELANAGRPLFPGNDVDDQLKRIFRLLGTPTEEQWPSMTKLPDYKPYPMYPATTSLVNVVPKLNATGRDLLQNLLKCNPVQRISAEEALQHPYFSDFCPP
Cdk5-p35, sequence (Q15078 whole entry partner): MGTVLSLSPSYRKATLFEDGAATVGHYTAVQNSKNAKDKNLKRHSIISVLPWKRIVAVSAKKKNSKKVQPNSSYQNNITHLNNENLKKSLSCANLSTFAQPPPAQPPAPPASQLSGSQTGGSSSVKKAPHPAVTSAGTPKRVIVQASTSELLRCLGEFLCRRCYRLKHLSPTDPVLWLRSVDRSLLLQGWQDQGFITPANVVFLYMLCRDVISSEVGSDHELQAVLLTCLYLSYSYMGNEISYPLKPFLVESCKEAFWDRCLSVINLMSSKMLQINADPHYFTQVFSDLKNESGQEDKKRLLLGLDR
Description: as §2

[4] = male, mouse, plasma, 1.0 mg/kg intravenous

Structure (SMILES): O=C(c1ccccc1-c1ccccc1)N1CCc2c([nH]c3ccccc23)C1 [BPT, 2-(biphenyl-2-carbonyl)-2,3,4,9-tetrahydro-1H-pyrido[3,4-b]indole]
- cells detected in the sub-G1 phase [1]: < 10%
- normal cells in the G2/M phase [1]: More than 50%
- antitumour efficacy (NCI-H460 tumours): high efficacy
- IC50 (PDGFR): > 10 µM
- phase of cell cycle block in Calu-1 cells (Calu-1 cells): blocks only at the G0/G1 phase
- EtBr displacement from DNA (pBluescript plasmid DNA): incapable of displacing; also recorded: does not displace ethidium bromide; also recorded: No EtBr displacement up to 100 μM ^a
- IC50 (MEK1): > 10 µM
- oral bioavailability [2]: poor
- plasma exposure after intravenous administration [2]: good plasma exposure
- CL ([2]; 1.0 mg/kg intravenous): 95.8 ml/min per kg
- AUC(0-inf) [2, 4]: 174 ng·h/mL
- AUC(0-t) [2, 4]: 170 ng·h/mL
- C0 [2, 4]: 888 ng/mL
- Cmax [2, 4]: 413 ng/mL
- Vd [2, 4]: 1.56 L/kg
- half-life [2, 4]: 11.4 min
- AUC(0-t) ([2]; male, mouse, plasma, oral, 10 mg/kg per os): 17.7 ng·h/mL
- G0/G1- and S-phase cells entering the G2/M phase (NCI-H358 cells): > 50%
- inhibition of other kinases (panel of 58) [3]: no inhibition against other kinases; also recorded: does not inhibit any kinase to any appreciable degree
- IC50 (Cdk5-p35): > 10 µM
